Measured values as given in ChEMBL document CHEMBL1201862, “PubChem BioAssay data set” (2004).
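Cells were grown in 96-well plates and exposed to each compound for 48 hours at five concentrations; endpoints were interpolated linearly between bracketing concentrations, or set to the highest concentration if not reached. GI50 = concentration required for 50% inhibition of growth.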 Activity calls are given as the source filed them. No stated cut-off is given here; in the data, active = GI50 up to about 1.1 µM and inactive = higher.

Assays:
Test in all cases: growth of human tumour cells (NCI), 48 h
HOP-92 = tested on: HOP-92
SNB-75 = tested on: SNB-75
ACHN = tested on: ACHN
SNB-19 = tested on: SNB-19
SN12C = tested on: SN12C
UACC-62 = tested on: UACC-62
NCI-H460 = tested on: NCI-H460
A498 = tested on: A498
SK-MEL-5 = tested on: SK-MEL-5
SF-268 = tested on: SF-268
HT-29 = tested on: HT-29
MDA-MB-231 = tested on: MDA-MB-231
UACC-257 = tested on: UACC-257
HCC 2998 = tested on: HCC 2998
UO-31 = tested on: UO-31
U-251 = tested on: U-251
EKVX = tested on: EKVX
IGROV-1 = tested on: IGROV-1
SK-OV-3 = tested on: SK-OV-3

Row | SMILES | GI50 (HOP-92) | GI50 (SNB-75) | GI50 (ACHN) | GI50 (SNB-19) | GI50 (SN12C) | GI50 (UACC-62) | GI50 (NCI-H460) | GI50 (A498) | GI50 (SK-MEL-5) | GI50 (SF-268) | GI50 (HT-29) | GI50 (MDA-MB-231) | GI50 (UACC-257) | GI50 (HCC 2998) | GI50 (UO-31) | GI50 (U-251) | GI50 (EKVX) | GI50 (IGROV-1) | GI50 (SK-OV-3)
1 | C[C@@H](c1ccccc1)n1c(N)c(C#N)c2ccc([N+](=O)[O-])cc2c1=O | 7.13 µM (inactive) | 5.51 µM (inactive) | 14.9 µM (inactive) | 13.6 µM (inactive) | 12 µM (inactive) | 13.2 µM (inactive) | 14.5 µM (inactive) | 6.27 µM (inactive) | 16.7 µM (inactive) | 29.7 µM (inactive) | 14.5 µM (inactive) | 14.9 µM (inactive) | 18.7 µM (inactive) | 15.5 µM (inactive) | 5.12 µM (inactive) | 18.7 µM (inactive) | – | – | –
2 | COc1ccc(NC(=O)/C(Cc2nc3ccccc3nc2O)=N\O)c(OC)c1 | > 100 µM (inactive) | > 100 µM (inactive) | > 100 µM (inactive) | > 100 µM (inactive) | > 100 µM (inactive) | > 100 µM (inactive) | > 100 µM (inactive) | > 100 µM (inactive) | > 100 µM (inactive) | > 100 µM (inactive) | > 100 µM (inactive) | – | > 100 µM (inactive) | > 100 µM (inactive) | > 100 µM (inactive) | > 100 µM (inactive) | > 100 µM (inactive) | > 100 µM (inactive) | > 100 µM (inactive)
3 | COc1ccc([C@@H]2CC(=O)NCCCCNCCCN2)cc1 | > 100 µM (inactive) | > 100 µM (inactive) | > 100 µM (inactive) | > 100 µM (inactive) | > 100 µM (inactive) | > 100 µM (inactive) | > 100 µM (inactive) | > 100 µM (inactive) | > 100 µM (inactive) | > 100 µM (inactive) | > 100 µM (inactive) | – | > 100 µM (inactive) | 0.0131 µM (active) | > 100 µM (inactive) | > 100 µM (inactive) | > 100 µM (inactive) | > 100 µM (inactive) | > 100 µM (inactive)
4 | CC1=NN(C(=O)CC(=O)N(C(=O)c2ccccc2Cl)c2ccc(C)cc2)C(=O)C1/N=N/c1ccc([N+](=O)[O-])cc1 (stereo not given) | 36.6 µM (inactive) | > 43.6 µM (inactive) | > 53.7 µM (inactive) | 53.1 µM (inactive) | > 100 µM (inactive) | 21.6 µM (inactive) | > 47.3 µM (inactive) | > 58.5 µM (inactive) | 99.1 µM (inactive) | 44.6 µM (inactive) | > 63.4 µM (inactive) | – | > 78.3 µM (inactive) | > 100 µM (inactive) | 44 µM (inactive) | 19.6 µM (inactive) | > 72.9 µM (inactive) | 56.2 µM (inactive) | 31.8 µM (inactive)
5 | CNC(=S)NNc1ncnc2c1c(-c1ccc(Cl)cc1)cn2-c1ccc(C)cc1 | 15.5 µM (inactive) | – | 10 µM (inactive) | 17.6 µM (inactive) | 11.1 µM (inactive) | 14.5 µM (inactive) | 1.95 µM (inactive) | 20.8 µM (inactive) | 5.89 µM (inactive) | 10.2 µM (inactive) | 14.9 µM (inactive) | 7.8 µM (inactive) | 12.9 µM (inactive) | – | 10.9 µM (inactive) | 11.1 µM (inactive) | 13.8 µM (inactive) | 10.4 µM (inactive) | 15 µM (inactive)
6 | COc1ccc(C(=O)C2=NON3OC23C(=O)c2ccc(OC)cc2)cc1 (stereo not given) | 2.59 µM (inactive) | 24.7 µM (inactive) | 17.5 µM (inactive) | 15.9 µM (inactive) | 15.3 µM (inactive) | 17.8 µM (inactive) | 20.6 µM (inactive) | 13.7 µM (inactive) | 14.1 µM (inactive) | 18.8 µM (inactive) | 22.4 µM (inactive) | – | 18.9 µM (inactive) | 18.1 µM (inactive) | 14.1 µM (inactive) | 16 µM (inactive) | 19.3 µM (inactive) | 11.6 µM (inactive) | 19.5 µM (inactive)
